Data published in ChEMBL document CHEMBL3244132, “Semisynthetic aminoglycoside antibacterials. 6. Synthesis of sisomicin, Antibiotic G-52, and novel 6'-substituted analogues of sisomicin from aminoglycoside 66-40C” (J Med Chem, 1978).
Converted amounts (≈) assume the structure as drawn. The source made the active and inactive calls. The calls are words filed in the database; no cut-off is given here.

Key:
[1] = system: Escherichia coli; test: Antimicrobial activity against Escherichia coli ATCC 10536 by tube dilution method; format: functional
[2] = system: Escherichia coli; test: Antimicrobial activity against Escherichia coli Baker 2 carrying APH(3')-I by tube dilution method; format: functional
[3] = system: Escherichia coli; test: Antimicrobial activity against Escherichia coli LA290R55 carrying ANT(2'') by tube dilution method; format: functional
[4] = system: Escherichia coli; test: Antimicrobial activity against Escherichia coli JR88 carrying AAC(3) by tube dilution method; format: functional
[5] = system: Escherichia coli; test: Antimicrobial activity against Escherichia coli HL97/W677 carrying AAC(6') by tube dilution method; format: functional
[6] = system: Pseudomonas aeruginosa; test: Antimicrobial activity against Pseudomonas aeruginosa St. M. 762 by tube dilution method; format: functional
[7] = system: Pseudomonas aeruginosa; test: Antimicrobial activity against Pseudomonas aeruginosa St. M. 1395 by tube dilution method; format: functional
[8] = system: Pseudomonas aeruginosa; test: Antimicrobial activity against Pseudomonas aeruginosa Stone 130 carrying AAC(3) by tube dilution method; format: functional
[9] = system: Pseudomonas aeruginosa; test: Antimicrobial activity against Pseudomonas aeruginosa GN 315 carrying AAC(6') by tube dilution method; format: functional
[10] = system: Klebsiella pneumoniae; test: Antimicrobial activity against Klebsiella pneumoniae Adler 17 carrying APH(3')-I by tube dilution method; format: functional
[11] = system: Klebsiella pneumoniae; test: Antimicrobial activity against Klebsiella pneumoniae Georgetown 3694 carrying APH(2'') by tube dilution method; format: functional
[12] = system: Providencia; test: Antimicrobial activity against Providencia 164 carrying AAC(2')-I by tube dilution method; format: functional
[13] = system: Proteus mirabilis; test: Antimicrobial activity against Proteus mirabilis Harding by tube dilution method; format: functional
[14] = system: Providencia rettgeri; test: Antimicrobial activity against Providencia rettgeri Membel by tube dilution method; format: functional
[15] = system: Providencia rettgeri; test: Antimicrobial activity against Providencia rettgeri Anderson by tube dilution method; format: functional
[16] = system: Serratia marcescens; test: Antimicrobial activity against Serratia marcescens Dalton by tube dilution method; format: functional
[17] = system: Salmonella typhimurium; test: Antimicrobial activity against Salmonella typhimurium Gr. B. by tube dilution method; format: functional, Salmonella enterica subsp. enterica serovar Typhimurium; settings: for MIC: Salmonella enterica
[18] = system: Bacillus subtilis; test: Antimicrobial activity against Bacillus subtilis ATCC 6633 by tube dilution method; format: functional
[19] = system: Staphylococcus aureus; test: Antimicrobial activity against Staphylococcus aureus 209 P by tube dilution method; format: functional
[20] = system: Staphylococcus aureus; test: Antimicrobial activity against Staphylococcus aureus Wood by tube dilution method; format: functional
[21] = system: Staphylococcus aureus; test: Antimicrobial activity against Staphylococcus aureus Ziegler by tube dilution method; format: functional
[22] = system: Staphylococcus aureus; test: Antimicrobial activity against Staphylococcus aureus 59N by tube dilution method; format: functional
[23] = system: Streptococcus pyogenes; test: Antimicrobial activity against Streptococcus pyogenes C by tube dilution method; format: functional
[24] = system: Streptococcus pyogenes; test: Antimicrobial activity against Streptococcus pyogenes 27 by tube dilution method; format: functional
[25] = system: Streptococcus pyogenes; test: Antimicrobial activity against Streptococcus pyogenes Group A Cruz by tube dilution method; format: functional
[26] = system: Streptococcus pyogenes; test: Antimicrobial activity against Streptococcus pyogenes Alvarez by tube dilution method; format: functional
[27] = Acute toxicity in albino CF1 mouse; format: organism-based; settings: in vivo
[28] = system: Trichomonas vaginalis; test: Antiprotozoal activity against Trichomonas vaginalis after 48 hrs; format: functional
[29] = system: Entamoeba histolytica; test: Antiprotozoal activity against Entamoeba histolytica JH; format: functional
[30] = system: Histomonas meleagridis; test: Antiprotozoal activity against Histomonas meleagridis; format: functional

Question: Which MIC [1] does the source give for `CN[C@@H]1[C@@H](O)[C@@H](O[C@@H]2[C@@H](O)[C@H](O[C@H]3OC(CNCCc4ccccc4)=CC[C@H]3N)[C@@H](N)C[C@H]2N)OC[C@]1(C)O` here?
Answer: Its MIC is 0.75 µg/mL (≈ 1.36 µM).

Question: And the MIC [2]?
Answer: Its MIC is 7.5 µg/mL (≈ 13.6 µM).

Question: And the MIC [3]?
Answer: The MIC was > 25 µg/mL.

Question: What about the MIC [4] of the same compound?
Answer: Its MIC is > 25 µg/mL.

Question: What about the MIC [5] of the same compound?
Answer: The MIC was 0.75 µg/mL (≈ 1.36 µM).

Question: And the MIC [6]?
Answer: The MIC was > 25 µg/mL.

Question: And the MIC [7]?
Answer: Its MIC is > 25 µg/mL.

Question: What about the MIC [8] of the same compound?
Answer: Its MIC is > 25 µg/mL.

Question: What about the MIC [9] of the same compound?
Answer: Its MIC is > 25 µg/mL.

Question: And the MIC [10]?
Answer: Its MIC is > 25 µg/mL.

Question: And the MIC [11]?
Answer: The MIC was > 25 µg/mL.

Question: And the MIC [12]?
Answer: The MIC was > 25 µg/mL.

Question: What about the MIC [13] of the same compound?
Answer: Its MIC is > 25 µg/mL.

Question: What about the MIC [14] of the same compound?
Answer: The MIC was > 25 µg/mL.

Question: And the MIC [15]?
Answer: The MIC was > 25 µg/mL.

Question: What about the MIC [16] of the same compound?
Answer: The MIC was > 25 µg/mL.

Question: And the MIC [17]?
Answer: Its MIC is 17.5 µg/mL (≈ 31.7 µM).

Question: What about the MIC [18] of the same compound?
Answer: Its MIC is 0.03 µg/mL (≈ 0.0544 µM).

Question: What about the MIC [19] of the same compound?
Answer: The MIC was 3 µg/mL (≈ 5.44 µM).

Question: And the MIC [20]?
Answer: The MIC was 3 µg/mL (≈ 5.44 µM).

Question: What about the MIC [21] of the same compound?
Answer: The MIC was 7.5 µg/mL (≈ 13.6 µM).

Question: And the MIC [22]?
Answer: The MIC was 3 µg/mL (≈ 5.44 µM).

Question: And the MIC [23]?
Answer: The MIC was > 25 µg/mL.

Question: And the MIC [24]?
Answer: The MIC was 17.5 µg/mL (≈ 31.7 µM).

Question: What about the MIC [25] of the same compound?
Answer: The MIC was > 25 µg/mL.

Question: What about the MIC [26] of the same compound?
Answer: The MIC was > 25 µg/mL.

Question: What about the LD50 [27] of the same compound?
Answer: The LD50 was 30 mg/kg.

Question: What about the Activity [28] of the same compound?
Answer: Its Activity is “inactive”.

Question: What about the Activity [29] of the same compound?
Answer: The Activity was “inactive”.

Question: And the Activity [30]?
Answer: The Activity was “inactive”.

Question: With `CN[C@@H]1[C@@H](O)[C@@H](O[C@@H]2[C@@H](O)[C@H](O[C@H]3OC(CNN4CCOCC4)=CC[C@H]3N)[C@@H](N)C[C@H]2N)OC[C@]1(C)O` as the compound, how does the Activity [1] read?
Answer: The Activity was “inactive”.

Question: And the Activity [2]?
Answer: Its Activity is “inactive”.

Question: And the Activity [3]?
Answer: The Activity was “inactive”.

Question: And the Activity [4]?
Answer: The Activity was “inactive”.

Question: And the Activity [5]?
Answer: The Activity was “inactive”.

Question: What about the Activity [6] of the same compound?
Answer: Its Activity is “inactive”.

Question: What about the Activity [7] of the same compound?
Answer: Its Activity is “inactive”.

Question: What about the Activity [8] of the same compound?
Answer: Its Activity is “inactive”.

Question: And the Activity [9]?
Answer: Its Activity is “inactive”.

Question: And the Activity [10]?
Answer: Its Activity is “inactive”.

Question: And the Activity [11]?
Answer: Its Activity is “inactive”.

Question: What about the Activity [12] of the same compound?
Answer: The Activity was “inactive”.

Question: What about the Activity [13] of the same compound?
Answer: Its Activity is “inactive”.

Question: And the Activity [14]?
Answer: Its Activity is “inactive”.

Question: What about the Activity [15] of the same compound?
Answer: The Activity was “inactive”.

Question: And the Activity [16]?
Answer: Its Activity is “inactive”.

Question: And the Activity ([17]; Salmonella enterica subsp. enterica serovar Typhimurium)?
Answer: The Activity was “inactive”.

Question: And the Activity [18]?
Answer: The Activity was “inactive”.

Question: What about the Activity [19] of the same compound?
Answer: The Activity was “inactive”.

Question: What about the Activity [20] of the same compound?
Answer: Its Activity is “inactive”.

Question: What about the Activity [21] of the same compound?
Answer: Its Activity is “inactive”.

Question: What about the Activity [22] of the same compound?
Answer: Its Activity is “inactive”.

Question: And the Activity [23]?
Answer: Its Activity is “inactive”.

Question: What about the Activity [24] of the same compound?
Answer: The Activity was “inactive”.

Question: What about the Activity [25] of the same compound?
Answer: Its Activity is “inactive”.

Question: What about the Activity [26] of the same compound?
Answer: Its Activity is “inactive”.

Question: What about the Activity [28] of the same compound?
Answer: The Activity was “inactive”.

Question: What about the Activity [29] of the same compound?
Answer: Its Activity is “inactive”.

Question: What about the Activity [30] of the same compound?
Answer: The Activity was “inactive”.

Question: Which results are given for `CN[C@@H]1[C@@H](O)[C@@H](O[C@@H]2[C@@H](O)[C@H](O[C@H]3OC(CNCCO)=CC[C@H]3N)[C@@H](N)C[C@H]2N)OC[C@]1(C)O`?
Answer: MIC [1]: 0.075 µg/mL (≈ 0.153 µM); MIC [2]: 3 µg/mL (≈ 6.1 µM); MIC [3]: 7.5 µg/mL (≈ 15.3 µM); MIC [4]: > 25 µg/mL; MIC [5]: 0.75 µg/mL (≈ 1.53 µM); MIC [6]: 0.3 µg/mL (≈ 0.61 µM); MIC [7]: 0.3 µg/mL (≈ 0.61 µM); MIC [8]: > 25 µg/mL; MIC [9]: 0.3 µg/mL (≈ 0.61 µM); MIC [10]: 0.075 µg/mL (≈ 0.153 µM); MIC [11]: > 25 µg/mL; MIC [12]: > 25 µg/mL; MIC [13]: 0.3 µg/mL (≈ 0.61 µM); MIC [14]: 0.75 µg/mL (≈ 1.53 µM); MIC [15]: > 25 µg/mL; MIC [16]: 0.75 µg/mL (≈ 1.53 µM); MIC [17]: 0.75 µg/mL (≈ 1.53 µM); MIC [18]: 0.3 µg/mL (≈ 0.61 µM); MIC [19]: 0.03 µg/mL (≈ 0.061 µM); MIC [20]: 0.03 µg/mL (≈ 0.061 µM); MIC [21]: 0.03 µg/mL (≈ 0.061 µM); MIC [23]: > 25 µg/mL; MIC [25]: 17.5 µg/mL (≈ 35.6 µM); MIC [26]: 17.5 µg/mL (≈ 35.6 µM); LD50 [27]: 135 mg/kg; Activity [28]: inactive; Activity [29]: inactive; Activity [30]: inactive
